According to patent US5336485A, “Method for protecting animals against tacrine induced cytotoxic injury using sterol compounds” (priority 1993, dated 1994):
Counter-ions that a name gives are not always drawn.

Experiments:
male Sprague-Dawley rats [1] = test: THA-induced side effects in rats; settings: 100 mg/kg ip 20 h prior
male Sprague-Dawley rats [2] = test: Global liver ischemia/reperfusion-induced lethality in rats; assay type: in vivo, rat; settings: ip 20 h prior, global ischemia 60 min; CS 100 mg/kg; cholesterol 64 + tris succinate 100 mg/kg
Procedure: 20 hours prior to global occlusion, one group of 10 rats was provided with 64 mg cholesterol/kg body weight and 100 mg tris succinate/kg body weight by i.p. injection, and another group of 10 rats was provided with 100 mg cholesteryl succinate/kg body weight. A control group of rats was only partially occluded for the one hour period. Ninety percent of the rats pretreated with cholesteryl succinate tris salt survived while only 10% of those pretreated with the combination of cholesterol and tris succinate survived. Table 22 of a partial ischemia study where male Sprague-Dawley rats were subjected to occlusion of the blood supply to the left lateral and median lobes of the liver for 60 minutes followed by reperfusion for 24 hours. During this time, the normal blood supply to the other lobes of the liver was maintained. […] Serum was obtained for AST and ALT measurements.
^a Global (total) or partial liver ischemia was induced 20 hours

[3] = Cytotoxicity of various toxic insults (A23187, cadmium, O2, doxorubicin, CCl4, hypoxia) in rat hepatocytes; assay type: cell-based; settings: rat, hepatocytes; Control (vehicle only, no insult), 25 μM alpha-TS; read-out: % Cell Death
Procedure: (§1) Only viable cells were monitored in the laboratory procedures.
(§2) In vitro experiments were performed to determine if alpha-TS could protect cells from different toxic insults. Under physiological conditions, rat hepatocytes were incubated with medium containing 25 μM alpha-TS. The hepatocytes were exposed to EMS, a potent mutagen and alkylating agent; the ionophore A23187, a membrane active compound that permits the equilibration of divalent cations across cell membranes; cadmium, a heavy metal, environmental contaminant, and known carcinogen who's mechanism of toxicity remains unknown; 95% O2, an excessive oxygen insult that produces an abundance of toxic oxygen free radicals and reactive oxygen intermediates in the cell; doxorubicin (adriamycin), a clinically important antitumor agent with cytotoxic effects proposed to result from its metabolic activation and the generation or reactive oxygen species; carbon tetrachloride (CCl4); and hypoxia (an absence of oxygen followed by reoxygenation).

rat hepatocytes [4] = test: as above; assay type: cell-based
Procedure: as §1, §2

epidermoid carcinomas = settings: local administration; cited from earlier work
human prostate cells = settings: 10 μM; cited from earlier work
rat hepatocytes [5] = settings: cited from earlier work
Sprague-Dawley rats = test: Paraquat lethality in rats; settings: rat, in vivo
Procedure: Rats received a 100 mg/kg (ip) dose of alpha-TS twenty four hours prior to a 40 mg/kg (ip) insult of paraquat which is a lung specific toxic agent. The rats also received a 100 mg/kg (ip) dose of alpha-TS each day after the paraquat insult.

[6] = tested on: mouse neuroblastoma cells NBP2; settings: 10 μM; cited from earlier work
rat hepatocytes [7] = test: Intracellular K+ of rat hepatocytes exposed to EMS; assay type: cell-based
From the text: Medzhradsky, Biochem. Med. 13:164 (1975), has noted that the cell's ability to maintain its intracellular concentration of potassium (K^+) is an excellent indicator of the metabolic integrity of the cell. A concentration gradient exists for K^+ with greater concentrations found intracellularly. To maintain this gradient, the cell is dependent on the action of the Na^+ -K^+ ATPase pump and an adequate supply of ATP. As cellular ATP levels decline, the ATPase pump is unable to maintain the gradient resulting in the loss of intracellular K^+ by equilibration with the extracellular space. Because the maintenance of cellular metabolic processes is essential to the continual repair and survival of cells, organ systems, and organisms, the effect of alpha-TS on the metabolic integrity of rat liver cells during a toxic insult was investigated by measuring intracellular K^+ levels. […] At each time-point, rapid separation of viable from non-viable hepatocytes and medium was accomplished by the dibutyl phthalate centrifugation method. Cell viability was monitored hourly by measuring LDH leakage with a Cobas Analyzer and intracellular [K^+ ]with a flame photometer. […] Lipid peroxidation was determined by measuring TBA reactants in the medium. […] Alltech, Avondale, Pa.). […] Following the addition of 0.2 ml 4 M HC1, the neutralized KOH-MeOH extracted with 0.8 ml hexane. […] A standard curve for each tocopherol congener was run with every assay. […] Only viable cells were monitored in the laboratory procedures.

skin lesion = test: Topical treatment of dermal injury in a human; assay type: in vivo
Procedure: In one case, the middle knuckle of the left hand of a person was injured by the removal of a small wart with liquid nitrogen. Two months following the liquid nitrogen insult, the injured area (approximately 1 cm in diameter) was characterized by scar tissue raised several millimeters above the surrounding normal skin. At this time, the lesion was treated by wetting the injured area with alpha-TS dissolved in dimethyl sulfoxide (100mg/ml), daily for a period of two weeks. […] One year following the last alpha-TS treatment, the once injured area remains indistinguishable from the surrounding normal tissue. In another case, a person's lip was severely sunburned. Topical lip cremes and antibiotic cremes were used for several weeks following the ultraviolet insult with minimal therapeutic benefit. At this time, the lesion was treated by wetting the injured area with alpha-TS dissolved in dimethyl sulfoxide (100mg/ml) daily for a period of 1 week. […] In another case, the arch of the left foot of a person was inflamed and blistered from contact dermatitis or stress dermatitis. Six months after unsuccessful treatment on this lesion with betamethasone, the injured area was treated by wetting the injured area with alpha-TS dissolved in dimethyl sulfoxide (100 mg/ml) twice daily for a period of 1 week. […] It is also evident from these cases that alpha-TS is the active component that promotes wound healing and prevents scar formation.

central nervous system = test: CCl4 central nervous system toxicity in rats; assay type: in vivo, rat; settings: pretreatment
[8] = tested on: platelet phospholipase A2; settings: cited from earlier work

SMILES: CC(C)CCC[C@@H](C)[C@H]1CC[C@H]2[C@@H]3CC=C4C[C@@H](OC(=O)CCC(=O)O)CC[C@]4(C)[C@H]3CC[C@]12C [Cholesteryl Succinate tris salt]
- Survival (male Sprague-Dawley rats [1]; THA 30.0 mg/kg (vehicle 100%)): 40%
- Salivation (male Sprague-Dawley rats [1]; THA 30.0 mg/kg, 0 to 4 scale (vehicle 2.2 ± 0.4)): 4.0 ± 0.0
- Tremors (male Sprague-Dawley rats [1]; THA 30.0 mg/kg, 0 to 4 scale (vehicle 3.0 ± 0.0)): 4.0 ± 0.0
- % Survival (male Sprague-Dawley rats [2]): 90%

SMILES: Cc1c(C)c2c(c(C)c1OC(=O)CCC(=O)O)CC[C@@](C)(CCC[C@H](C)CCC[C@H](C)CCCC(C)C)O2 [alpha-TS, d-alpha-tocopheryl succinate]
- cytotoxicity at 25 µM [3]: 21%
- % Cell Death (rat hepatocytes [4]; 95% Oxygen, 25 μM alpha-TS (no alpha-TS 57)): 23%
- % Cell Death (rat hepatocytes [4]; CCl4 2.5 mM, 25 μM alpha-TS (no alpha-TS 63)): 38%
- % Cell Death (rat hepatocytes [4]; Cadmium 0.1 mM, 25 μM alpha-TS (no alpha-TS 70)): 24%
- % Cell Death (rat hepatocytes [4]; Doxorubicin 100 μM, 25 μM alpha-TS (no alpha-TS 62)): 28%
- % Cell Death (rat hepatocytes [4]; Hypoxia 4 hrs N2 and 2 hrs O2, 25 μM alpha-TS (no alpha-TS 70)): 49%
- % Cell Death (rat hepatocytes [4]; Ionophore A23187 5 μM, 25 μM alpha-TS (no alpha-TS 73)): 24%
- protection from lethal effects of ionophore A23187 (rat hepatocytes [4]; rat hepatocytes, 25 μM, 5 μM A23187): protected rat hepatocytes from the lethal effects
- tumor regression (epidermoid carcinomas): dramatic regression
- tumor cell growth (human prostate cells): inhibits tumor cell growth
- cytoprotective effect at 3.5 mM Ca2+ (rat hepatocytes [5]; 3.5 mM Ca2+): eliminated the cytoprotective effect
- protection of rat hepatocytes from toxic effects of drugs (rat hepatocytes [5]; Ca2+ free medium): protected from the toxic effects of drugs
- survival time of paraquat exposed rats (Sprague-Dawley rats): 6 days
- tumor cell growth [6]: inhibits tumor cell growth
- % Initial Intracellular [K+] (rat hepatocytes [7]; 50 mM EMS + 25 μM alpha-TS): 93 ± 11 % Initial
- % Initial Intracellular [K+] (rat hepatocytes [7]; 50 mM EMS + 25 μM alpha-TS + 100 μM Bis-(p-nitrophenyl) phosphate): 14 ± 6 % Initial
- % Initial Intracellular [K+] (rat hepatocytes [7]; 50 mM EMS + 25 μM alpha-TS + 100 μM Diethyl p-nitrophenyl phosphate): 26 ± 2 % Initial
- % Initial Intracellular [K+] (rat hepatocytes [7]; 50 mM EMS, 5 Hrs, concentrations as cell death (Table 15)): 86 ± 6 % Initial
- intracellular K+ during EMS insult (rat hepatocytes [7]; rat hepatocytes, 25 μM, 50 mM EMS): no loss of intracellular K+
- healing of sunburned lip (skin lesion; topical 100 mg/ml in DMSO daily, 1 week): rapid healing of the lip without scar formation
- healing of injured area (liquid nitrogen) (skin lesion; topical 100 mg/ml in DMSO daily, two weeks): rapid healing of the injured area with the elimination of scar tissue
- healing of foot lesion (dermatitis) (skin lesion; topical 100 mg/ml in DMSO twice daily, 1 week): rapid healing of the foot lesion with the dissolution of both inflammation and blisters
- recovery from acute CNS toxic manifestations of CCl4 (central nervous system): several days before rats which are not treated with alpha-TS
- inhibition of platelet phospholipase A2 activity [8]: inhibits platelet phospholipase A2 activity
